Test results reported in PubChem BioAssay (NCI).
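Five concentrations, 48 hours, 96-well plates. TGI denotes the concentration required for complete inhibition of growth.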

Tests used:
Experiment in all cases: NCI tumour cell line growth inhibition, 48 h
ACHN renal = tested on: ACHN renal
OVCAR-4 ovarian = tested on: OVCAR-4 ovarian
MDA-N = tested on: MDA-N
MDA-MB-231 breast = tested on: MDA-MB-231 breast
MCF7 breast = tested on: MCF7 breast
DU-145 prostate = tested on: DU-145 prostate
SNB-75 CNS = tested on: SNB-75 CNS
OVCAR-5 ovarian = tested on: OVCAR-5 ovarian
RPMI-8226 leukemia = tested on: RPMI-8226 leukemia
CCRF-CEM leukemia = tested on: CCRF-CEM leukemia
IGROV1 ovarian = tested on: IGROV1 ovarian
EKVX NSCLC = tested on: EKVX NSCLC
NCI/ADR-RES ovarian = tested on: NCI/ADR-RES ovarian
HT29 colon = tested on: HT29 colon
PC-3 prostate = tested on: PC-3 prostate
HS 578T breast = tested on: HS 578T breast
UACC-257 melanoma = tested on: UACC-257 melanoma
T-47D breast = tested on: T-47D breast
U251 CNS = tested on: U251 CNS
SN12C renal = tested on: SN12C renal
BT-549 breast = tested on: BT-549 breast
MDA-MB-435 = tested on: MDA-MB-435
SK-MEL-28 melanoma = tested on: SK-MEL-28 melanoma
MOLT-4 leukemia = tested on: MOLT-4 leukemia
M14 melanoma = tested on: M14 melanoma
HOP-62 NSCLC = tested on: HOP-62 NSCLC
HCT-116 colon = tested on: HCT-116 colon
SR leukemia = tested on: SR leukemia
SF-295 CNS = tested on: SF-295 CNS
SK-MEL-5 melanoma = tested on: SK-MEL-5 melanoma
CAKI-1 renal = tested on: CAKI-1 renal
A549 NSCLC = tested on: A549 NSCLC
K-562 leukemia = tested on: K-562 leukemia
RXF 393 renal = tested on: RXF 393 renal
KM12 colon = tested on: KM12 colon
UO-31 renal = tested on: UO-31 renal
NCI-H23 lung = tested on: NCI-H23 lung
SK-OV-3 ovarian = tested on: SK-OV-3 ovarian
OVCAR-8 ovarian = tested on: OVCAR-8 ovarian
SNB-19 CNS = tested on: SNB-19 CNS
LOX IMVI melanoma = tested on: LOX IMVI melanoma
COLO 205 colon = tested on: COLO 205 colon
NCI-H460 lung = tested on: NCI-H460 lung
TK-10 renal = tested on: TK-10 renal
MALME-3M melanoma = tested on: MALME-3M melanoma
SW-620 colon = tested on: SW-620 colon
HCT-15 colon = tested on: HCT-15 colon
SF-539 CNS = tested on: SF-539 CNS
HL-60(TB) leukemia = tested on: HL-60(TB) leukemia
SF-268 CNS = tested on: SF-268 CNS
UACC-62 melanoma = tested on: UACC-62 melanoma
OVCAR-3 ovarian = tested on: OVCAR-3 ovarian
786-0 renal = tested on: 786-0 renal
HOP-92 NSCLC = tested on: HOP-92 NSCLC
HCC-2998 colon = tested on: HCC-2998 colon
NCI-H226 lung = tested on: NCI-H226 lung
NCI-H522 lung = tested on: NCI-H522 lung

COc1ccc(CCn2nccc2C)cc1
TGI (ACHN renal): > 100 µM
TGI (OVCAR-4 ovarian): > 100 µM
TGI (MDA-N): > 100 µM
TGI (MDA-MB-231 breast): > 100 µM
TGI (MCF7 breast): > 100 µM
TGI (DU-145 prostate): > 100 µM
TGI (SNB-75 CNS): > 100 µM
TGI (OVCAR-5 ovarian): > 100 µM
TGI (RPMI-8226 leukemia): > 100 µM
TGI (CCRF-CEM leukemia): > 100 µM
TGI (IGROV1 ovarian): > 100 µM
TGI (EKVX NSCLC): > 100 µM
TGI (NCI/ADR-RES ovarian): > 100 µM
TGI (HT29 colon): > 100 µM
TGI (PC-3 prostate): > 100 µM
TGI (HS 578T breast): > 100 µM
TGI (UACC-257 melanoma): > 100 µM
TGI (T-47D breast): > 100 µM
TGI (U251 CNS): > 100 µM
TGI (SN12C renal): > 100 µM
TGI (BT-549 breast): > 100 µM
TGI (MDA-MB-435): > 100 µM
TGI (SK-MEL-28 melanoma): > 100 µM
TGI (MOLT-4 leukemia): > 100 µM
TGI (M14 melanoma): > 100 µM
TGI (HOP-62 NSCLC): > 100 µM
TGI (HCT-116 colon): > 100 µM
TGI (SR leukemia): > 100 µM
TGI (SF-295 CNS): > 100 µM
TGI (SK-MEL-5 melanoma): > 100 µM
TGI (CAKI-1 renal): > 100 µM
TGI (A549 NSCLC): > 100 µM
TGI (K-562 leukemia): > 100 µM
TGI (RXF 393 renal): > 100 µM
TGI (KM12 colon): > 100 µM
TGI (UO-31 renal): > 100 µM
TGI (NCI-H23 lung): > 100 µM
TGI (SK-OV-3 ovarian): > 100 µM
TGI (OVCAR-8 ovarian): > 100 µM
TGI (SNB-19 CNS): > 100 µM
TGI (LOX IMVI melanoma): > 100 µM
TGI (COLO 205 colon): > 100 µM
TGI (NCI-H460 lung): > 100 µM
TGI (TK-10 renal): > 100 µM
TGI (MALME-3M melanoma): > 100 µM
TGI (SW-620 colon): > 100 µM
TGI (HCT-15 colon): > 100 µM
TGI (SF-539 CNS): > 100 µM
TGI (HL-60(TB) leukemia): > 100 µM
TGI (SF-268 CNS): > 100 µM
TGI (UACC-62 melanoma): > 100 µM
TGI (OVCAR-3 ovarian): > 100 µM

O=C(OCCN1CCCCCC1)C(c1ccsc1)C1CCCCC1 (stereo not given)
TGI (ACHN renal): 33.1 µM
TGI (786-0 renal): 31.8 µM
TGI (MDA-N): 28.4 µM
TGI (MDA-MB-231 breast): 31.8 µM
TGI (MCF7 breast): 33 µM
TGI (DU-145 prostate): 33.2 µM
TGI (SNB-75 CNS): 32.2 µM
TGI (OVCAR-5 ovarian): 32.5 µM
TGI (RPMI-8226 leukemia): 32.1 µM
TGI (CCRF-CEM leukemia): 40.2 µM
TGI (IGROV1 ovarian): 24.2 µM
TGI (EKVX NSCLC): 35.7 µM
TGI (NCI/ADR-RES ovarian): 31.4 µM
TGI (HT29 colon): 31.6 µM
TGI (PC-3 prostate): 44.9 µM
TGI (HS 578T breast): 37.8 µM
TGI (UACC-257 melanoma): 34.5 µM
TGI (T-47D breast): 17.8 µM
TGI (U251 CNS): 32.1 µM
TGI (HOP-92 NSCLC): 31.2 µM
TGI (SN12C renal): 32.8 µM
TGI (BT-549 breast): 29.6 µM
TGI (MDA-MB-435): 32.3 µM
TGI (SK-MEL-28 melanoma): 36.2 µM
TGI (MOLT-4 leukemia): 50.6 µM
TGI (HCC-2998 colon): 31.5 µM
TGI (M14 melanoma): 32.8 µM
TGI (HOP-62 NSCLC): 29.9 µM
TGI (HCT-116 colon): 29.6 µM
TGI (SR leukemia): 57.2 µM
TGI (SF-295 CNS): 32.4 µM
TGI (CAKI-1 renal): 29.4 µM
TGI (A549 NSCLC): 44.5 µM
TGI (KM12 colon): 32.1 µM
TGI (UO-31 renal): 26.9 µM
TGI (NCI-H23 lung): 39 µM
TGI (SK-OV-3 ovarian): 31.8 µM
TGI (OVCAR-8 ovarian): 34.5 µM
TGI (SNB-19 CNS): 40.4 µM
TGI (LOX IMVI melanoma): 32.2 µM
TGI (COLO 205 colon): 22.7 µM
TGI (NCI-H460 lung): 33 µM
TGI (TK-10 renal): 33.5 µM
TGI (MALME-3M melanoma): 28.2 µM
TGI (SW-620 colon): 33.4 µM
TGI (HCT-15 colon): 30.8 µM
TGI (SF-539 CNS): 30.8 µM
TGI (HL-60(TB) leukemia): 70.6 µM
TGI (SF-268 CNS): 36.8 µM
TGI (OVCAR-3 ovarian): 28.8 µM

CN(C(=O)CC(=O)CP(=O)(c1ccccc1)c1ccccc1)c1ccccc1
TGI (ACHN renal): > 100 µM
TGI (OVCAR-4 ovarian): > 100 µM
TGI (786-0 renal): > 100 µM
TGI (MDA-N): > 100 µM
TGI (MDA-MB-231 breast): > 100 µM
TGI (MCF7 breast): > 100 µM
TGI (DU-145 prostate): > 100 µM
TGI (SNB-75 CNS): > 100 µM
TGI (RPMI-8226 leukemia): > 100 µM
TGI (CCRF-CEM leukemia): > 100 µM
TGI (IGROV1 ovarian): > 100 µM
TGI (EKVX NSCLC): > 100 µM
TGI (NCI-H226 lung): > 100 µM
TGI (NCI/ADR-RES ovarian): > 100 µM
TGI (HT29 colon): > 100 µM
TGI (PC-3 prostate): > 100 µM
TGI (HS 578T breast): > 100 µM
TGI (UACC-257 melanoma): > 100 µM
TGI (T-47D breast): > 100 µM
TGI (U251 CNS): > 100 µM
TGI (SN12C renal): > 100 µM
TGI (BT-549 breast): > 100 µM
TGI (MDA-MB-435): > 100 µM
TGI (SK-MEL-28 melanoma): > 100 µM
TGI (MOLT-4 leukemia): > 100 µM
TGI (HCC-2998 colon): > 100 µM
TGI (M14 melanoma): > 100 µM
TGI (HOP-62 NSCLC): > 100 µM
TGI (HCT-116 colon): > 100 µM
TGI (SR leukemia): > 100 µM
TGI (SF-295 CNS): > 100 µM
TGI (SK-MEL-5 melanoma): > 100 µM
TGI (CAKI-1 renal): > 100 µM
TGI (A549 NSCLC): > 100 µM
TGI (K-562 leukemia): > 100 µM
TGI (RXF 393 renal): > 100 µM
TGI (KM12 colon): > 100 µM
TGI (UO-31 renal): > 100 µM
TGI (NCI-H522 lung): > 100 µM
TGI (NCI-H23 lung): > 100 µM
TGI (SK-OV-3 ovarian): > 100 µM
TGI (OVCAR-8 ovarian): > 100 µM
TGI (SNB-19 CNS): > 100 µM
TGI (COLO 205 colon): > 100 µM
TGI (NCI-H460 lung): > 100 µM
TGI (TK-10 renal): > 100 µM
TGI (SW-620 colon): > 100 µM
TGI (HCT-15 colon): > 100 µM
TGI (SF-539 CNS): > 100 µM
TGI (HL-60(TB) leukemia): > 100 µM
TGI (SF-268 CNS): > 100 µM
TGI (UACC-62 melanoma): > 100 µM
TGI (OVCAR-3 ovarian): > 100 µM
